Assay results from patent US20230416224A1, “PROCESSES FOR PREPARING ARIMOCLOMOL CITRATE AND INTERMEDIATES THEREOF” (ZEVRA DENMARK A/S, priority 2020, published 2023).

Assay: Particle size distribution of ORZY-05 by static automated imaging (Morphologi 4)
Assay type: physicochemical
Conditions: ORZY-05 particles
Experimental: The materials and methods were essentially as in Example 7. In the present example, the cooling time of the cooling step of from 30° C. to 0° C. subsequent to addition of acetone was varied and its influence on the particle size of ORZY-05 was determined. The cooling time is a measure of how long it takes to reach 0° C. from 30° C. The particle size distribution (PSD) data shown in Table 3 were acquired using static automated imaging (Morphology 4).
Morphologi 4: The Particle size distribution of Arimoclomol citrate (ORZY-05) was also measured using a Malvern Morphologi 4 equipment.
Wet measurement was used for the needle shaped particles. […] Measurements were made using a thin path wet cell (75*75 mm). Samples were prepared by adding 20 mL of dispersant to 10 mg of API, followed by 30 s of stirring and 2 min of sonication in order to break the agglomerates. A microscope magnifier of X10 or X20 was used, and segmentation sharp edge and/or thresholding was used to improve the focus microscope focus.

Row | Structure (SMILES) | Number CE Diameter D10 | Number CE Diameter D50 | Number CE Diameter D90 | Number CE Diameter Mean | Number Length D10 | Number Length D50 | Number Length D90 | Volume CE Diameter D10 | Volume CE Diameter D50 | Volume CE Diameter D90
1 | O=C(O)CC(O)(CC(=O)O)C(=O)O.[O-][n+]1cccc(/C(Cl)=N/OC[C@H](O)CN2CCCCC2)c1 [17-001, arimoclomol citrate] | 0.60 μm | 1.60 μm | 9.40 μm | 3.70 μm | 1.70 μm | 4.70 μm | 22.00 μm | 9.40 μm | 24.70 μm | 44.40 μm
2 | O=C(O)CC(O)(CC(=O)O)C(=O)O.[O-][n+]1cccc(/C(Cl)=N/OC[C@H](O)CN2CCCCC2)c1 [17-002, arimoclomol citrate] | 0.70 μm | 2.20 μm | 7.40 μm | 3.40 μm | 1.10 μm | 3.20 μm | 13.90 μm | 6.20 μm | 14.00 μm | 35.00 μm
3 | O=C(O)CC(O)(CC(=O)O)C(=O)O.[O-][n+]1cccc(/C(Cl)=N/OC[C@H](O)CN2CCCCC2)c1 [17-003, arimoclomol citrate] | 1.00 μm | 2.00 μm | 5.80 μm | 2.90 μm | 1.40 μm | 3.20 μm | 10.50 μm | 4.60 μm | 11.10 μm | 26.70 μm
4 | O=C(O)CC(O)(CC(=O)O)C(=O)O.[O-][n+]1cccc(/C(Cl)=N/OC[C@H](O)CN2CCCCC2)c1 [17-004, arimoclomol citrate] | 0.80 μm | 2.00 μm | 23.50 μm | 6.70 μm | 1.50 μm | 4.00 μm | 40.70 μm | 24.60 μm | 38.90 μm | 52.20 μm
5 | O=C(O)CC(O)(CC(=O)O)C(=O)O.[O-][n+]1cccc(/C(Cl)=N/OC[C@H](O)CN2CCCCC2)c1 [18-001, arimoclomol citrate] | 0.80 μm | 2.50 μm | 10.70 μm | 4.60 μm | 1.80 μm | 4.10 μm | 16.80 μm | 11.20 μm | 26.40 μm | 37.60 μm
6 | O=C(O)CC(O)(CC(=O)O)C(=O)O.[O-][n+]1cccc(/C(Cl)=N/OC[C@H](O)CN2CCCCC2)c1 [18-002, arimoclomol citrate] | 0.90 μm | 2.20 μm | 10.10 μm | 4.20 μm | 1.50 μm | 3.60 μm | 16.60 μm | 10.90 μm | 22.70 μm | 36.00 μm
7 | O=C(O)CC(O)(CC(=O)O)C(=O)O.[O-][n+]1cccc(/C(Cl)=N/OC[C@H](O)CN2CCCCC2)c1 [18-003, arimoclomol citrate] | 4.40 μm | 21.80 μm | 38.20 μm | 22.10 μm | 8.00 μm | 29.90 μm | 56.10 μm | 24.00 μm | 37.60 μm | 58.30 μm
8 | O=C(O)CC(O)(CC(=O)O)C(=O)O.[O-][n+]1cccc(/C(Cl)=N/OC[C@H](O)CN2CCCCC2)c1 [18-004, arimoclomol citrate] | 3.70 μm | 12.00 μm | 29.20 μm | 14.90 μm | 5.30 μm | 15.40 μm | 40.00 μm | 19.40 μm | 39.80 μm | 81.20 μm
9 | O=C(O)CC(O)(CC(=O)O)C(=O)O.[O-][n+]1cccc(/C(Cl)=N/OC[C@H](O)CN2CCCCC2)c1 [compound 1001, arimoclomol citrate] | 2.41 μm | 5.28 μm | 17.81 μm | 8.16 μm | 2.90 μm | 7.03 μm | 26.69 μm | 13.10 μm | 25.95 μm | 47.14 μm

Same assay, conditions: ORZY-05 particles

Row | Structure (SMILES) | Volume CE diameter D[3,2] | Volume CE diameter D[4,3]
10 | O=C(O)CC(O)(CC(=O)O)C(=O)O.[O-][n+]1cccc(/C(Cl)=N/OC[C@H](O)CN2CCCCC2)c1 [17-001, arimoclomol citrate] | 17.70 μm | 25.70 μm
11 | O=C(O)CC(O)(CC(=O)O)C(=O)O.[O-][n+]1cccc(/C(Cl)=N/OC[C@H](O)CN2CCCCC2)c1 [17-002, arimoclomol citrate] | 11.40 μm | 17.10 μm
12 | O=C(O)CC(O)(CC(=O)O)C(=O)O.[O-][n+]1cccc(/C(Cl)=N/OC[C@H](O)CN2CCCCC2)c1 [17-003, arimoclomol citrate] | 8.80 μm | 13.70 μm
13 | O=C(O)CC(O)(CC(=O)O)C(=O)O.[O-][n+]1cccc(/C(Cl)=N/OC[C@H](O)CN2CCCCC2)c1 [17-004, arimoclomol citrate] | 34.20 μm | 38.80 μm
14 | O=C(O)CC(O)(CC(=O)O)C(=O)O.[O-][n+]1cccc(/C(Cl)=N/OC[C@H](O)CN2CCCCC2)c1 [18-001, arimoclomol citrate] | 19.50 μm | 25.40 μm
15 | O=C(O)CC(O)(CC(=O)O)C(=O)O.[O-][n+]1cccc(/C(Cl)=N/OC[C@H](O)CN2CCCCC2)c1 [18-002, arimoclomol citrate] | 17.90 μm | 23.30 μm
16 | O=C(O)CC(O)(CC(=O)O)C(=O)O.[O-][n+]1cccc(/C(Cl)=N/OC[C@H](O)CN2CCCCC2)c1 [18-003, arimoclomol citrate] | 35.40 μm | 41.10 μm
17 | O=C(O)CC(O)(CC(=O)O)C(=O)O.[O-][n+]1cccc(/C(Cl)=N/OC[C@H](O)CN2CCCCC2)c1 [18-004, arimoclomol citrate] | 33.90 μm | 45.90 μm
18 | O=C(O)CC(O)(CC(=O)O)C(=O)O.[O-][n+]1cccc(/C(Cl)=N/OC[C@H](O)CN2CCCCC2)c1 [compound 1001, arimoclomol citrate] | 21.77 μm | 29.46 μm

Assay: Particle size distribution of ORZY-05 by Malvern Mastersizer 3000
Assay type: physicochemical
Conditions: ORZY-05 particles, Malvern Mastersizer 3000, volume distribution
Experimental: Further batches of ORZY-05 were prepared essentially as in Example 7 and the ORZY-05 particles were examined using Malvern Mastersizer 3000 as described in Example 11.
Malvern Mastersizer 3000: Particle size distribution of Arimoclomol citrate (ORZY-05) was determined by light scattering using a Malvern Mastersizer 3000 particle size analyzer (Malvern Instruments Ltd, Grovewood Road, Malvern, Worcestershire WR14 1XZ, United Kingdom) with a Hydro MV wet-dispersion unit attached. 2-Propanol with 1.8 g/L SPAN-85 additive was used as a dispersion medium (“dispersant”) and added to the dispersion unit. Prior to sample addition, the background counts of the system were determined by circulating the dispersant through the measurement cell under measurement conditions (2500 rpm stirrer speed). Samples for analysis were prepared by adding a suitable amount of Arimoclomol citrate to a 10 mL vial and pre-dispersing it with dispersant under light agitation for a few seconds. The pre-dispersed sample was then pipetted into the Hydro MV dispersion unit filled with dispersant to meet a laser obscuration range of 10-15%. A single-use PE pipette was used for this and representative sampling from the 10 mL vial was ensured by continuous agitation. […] Volume distributions were obtained and the D10, D50 and D90 were calculated from these distributions and reported. For each sample, a single sample preparation was analyzed using red light measurement only. Upon measurement completion, the sample cell was emptied and cleaned.

Row | Structure (SMILES) | D10 | D50 | D90
19 | O=C(O)CC(O)(CC(=O)O)C(=O)O.[O-][n+]1cccc(/C(Cl)=N/OC[C@H](O)CN2CCCCC2)c1 [compound 1001, arimoclomol citrate] | 7.00 μm | 21.00 μm | 63.00 μm
20 | O=C(O)CC(O)(CC(=O)O)C(=O)O.[O-][n+]1cccc(/C(Cl)=N/OC[C@H](O)CN2CCCCC2)c1 [compound 2001, arimoclomol citrate] | 17.2 μm | 47.2 μm | 112 μm
21 | O=C(O)CC(O)(CC(=O)O)C(=O)O.[O-][n+]1cccc(/C(Cl)=N/OC[C@H](O)CN2CCCCC2)c1 [compound 2002, arimoclomol citrate] | 4.33 μm | 12.5 μm | 37.9 μm
22 | O=C(O)CC(O)(CC(=O)O)C(=O)O.[O-][n+]1cccc(/C(Cl)=N/OC[C@H](O)CN2CCCCC2)c1 [compound 2003, arimoclomol citrate] | 4.65 μm | 13.5 μm | 40.7 μm
23 | O=C(O)CC(O)(CC(=O)O)C(=O)O.[O-][n+]1cccc(/C(Cl)=N/OC[C@H](O)CN2CCCCC2)c1 [compound 2004, arimoclomol citrate] | 10.2 μm | 34.8 μm | 87 μm
24 | O=C(O)CC(O)(CC(=O)O)C(=O)O.[O-][n+]1cccc(/C(Cl)=N/OC[C@H](O)CN2CCCCC2)c1 [compound 2005, arimoclomol citrate] | 11.2 μm | 35.6 μm | 82.6 μm
25 | O=C(O)CC(O)(CC(=O)O)C(=O)O.[O-][n+]1cccc(/C(Cl)=N/OC[C@H](O)CN2CCCCC2)c1 [compound 2006, arimoclomol citrate] | 11.6 μm | 35.6 μm | 77.7 μm
